Results as given in the NIST ThermoML archive (doi:10.1021/acs.jced.8b00037).
± gives the expanded uncertainty stated by the source.

Test: molar heat capacity at saturation pressure
Conditions: Liquid, Vacuum adiabatic calorimetry

COC [dimethyl ether]
Conditions	molar heat capacity [J/K/mol]
133.47 K	99.41 ± 0.73
136.11 K	98.99 ± 0.72
138.75 K	99.09 ± 0.73
141.37 K	98.75 ± 0.72
143.97 K	98.64 ± 0.72
146.56 K	98.99 ± 0.72
149.14 K	99.23 ± 0.73
151.7 K	98.99 ± 0.72
154.26 K	98.77 ± 0.72
156.8 K	98.65 ± 0.72
159.33 K	98.43 ± 0.72
161.84 K	98.67 ± 0.72
164.35 K	98.6 ± 0.72
166.84 K	98.46 ± 0.72
169.32 K	98.32 ± 0.72
171.79 K	98.39 ± 0.72
174.26 K	98.44 ± 0.72
176.71 K	98.47 ± 0.72
179.15 K	98.73 ± 0.72
181.58 K	98.78 ± 0.72
184 K	98.54 ± 0.72
186.41 K	98.8 ± 0.72
188.82 K	98.98 ± 0.72
191.21 K	98.9 ± 0.72
193.6 K	99.11 ± 0.73
195.98 K	98.99 ± 0.72
198.36 K	99.02 ± 0.72
200.73 K	99.09 ± 0.73
203.08 K	99.08 ± 0.73
205.44 K	99.32 ± 0.73
207.79 K	99.89 ± 0.73
210.13 K	100.15 ± 0.73
212.46 K	99.96 ± 0.73
214.79 K	100.15 ± 0.73
217.12 K	100.26 ± 0.73
219.43 K	100.09 ± 0.73
221.74 K	100.12 ± 0.73
224.04 K	100.21 ± 0.73
226.34 K	100.65 ± 0.74
228.64 K	101.1 ± 0.74
230.92 K	101.1 ± 0.74
233.21 K	101.41 ± 0.74
235.49 K	101.75 ± 0.74
237.76 K	101.68 ± 0.74
240.03 K	101.94 ± 0.74
242.31 K	102.15 ± 0.75
244.57 K	102.6 ± 0.75
246.84 K	102.48 ± 0.75
249.11 K	103.29 ± 0.75
251.38 K	102.81 ± 0.75
253.64 K	103 ± 0.75
255.9 K	103.44 ± 0.76
258.16 K	103.81 ± 0.76
260.42 K	104.08 ± 0.76
262.68 K	104.75 ± 0.76
264.94 K	105.51 ± 0.77
267.2 K	105.91 ± 0.77
269.47 K	106.42 ± 0.78
271.72 K	106.14 ± 0.77
273.98 K	106.27 ± 0.77
276.24 K	107.11 ± 0.78
278.5 K	108 ± 0.79
280.77 K	108.08 ± 0.79
283.02 K	108.35 ± 0.79
285.29 K	108.89 ± 0.79
287.55 K	109.42 ± 0.8
289.82 K	109.46 ± 0.8
292.08 K	110 ± 0.8
294.36 K	110.71 ± 0.81
296.63 K	110.49 ± 0.8
298.9 K	111.38 ± 0.81
301.19 K	111.57 ± 0.81
303.45 K	112.35 ± 0.82
305.74 K	112.73 ± 0.82
308.02 K	113.5 ± 0.83
310.3 K	114.89 ± 0.83
312.58 K	115.6 ± 0.84
314.87 K	116.12 ± 0.84
317.16 K	116.12 ± 0.84
319.44 K	117.62 ± 0.85
323.96 K	119.09 ± 0.86
326.26 K	120.03 ± 0.87
328.57 K	120.51 ± 0.87
330.88 K	121.43 ± 0.88
333.2 K	121.96 ± 0.88
335.54 K	122.78 ± 0.89
337.89 K	122.8 ± 0.89
340.24 K	124.08 ± 0.9
342.62 K	124.9 ± 0.9
345 K	125.19 ± 0.91
